Patent US20070265240A1, “Sequence Selective Pyrrole and Imidazole Polyamide Metallocomplexes” (priority 2003, published 2007)

Legend:
[1] = system: d(CATTGAGAGAC)2 (double mismatch site); test: CD titration, affinity constant for double-mismatch duplex; format: binding; details: derived from CD titrations; 5 μM duplex DNA, 10 mM sodium phosphate pH 7.0, 40 mM NaCl, room temperature
Experimental: (§1) The changes are generally monitored until saturation is reached. The equilibrium constant can be determined using standard techniques, such as Scatchard plot, the McGhee Von Hippel model, or least squares, for analysis.
(§2) All CD measurements were recorded on a Jasco J-810 CD spectropolarimeter at room temperature and cell length of 1 cm. Titrations were performed by incrementally adding aliquots of Im/Py/Py-Pt to a 2600 μL solution of 5 μM duplex DNA. After each addition, an average CD spectrum from 240 to 400 nm (20 accumulations) was recorded. DNA concentration was 5 μM. The concentration of Im/Py/Py-Pt ranged from 0 to 10 μM. Solution conditions were 10 mM sodium phosphate (pH 7.0) and 40 mM NaCl.

[2] = system: d(CATTGTCAGAC)2 (target site); test: CD titration, affinity constant for target-site duplex; format: binding; details: derived from CD titrations; 5 μM duplex DNA, 10 mM sodium phosphate pH 7.0, 40 mM NaCl, room temperature
Experimental: as §1, §2

[3] = system: d(CATTGACAGAC)2 (single mismatch site); test: CD titration, affinity constant for single-mismatch duplex; format: binding; details: derived from CD titrations; 5 μM duplex DNA, 10 mM sodium phosphate pH 7.0, 40 mM NaCl, room temperature
Experimental: as §1, §2

[4] = system: relaxed and negatively supercoiled pUC19 DNA; details: value reported for cisplatin; cited from earlier work
[5] = system: recombinant pSP64 derivative; test: In vitro transcription assay (inhibition of RNA synthesis); format: biochemical; details: increasing molar concentration; after 12 hour platination in the dark at 4° C.; 40 mM Tris-HCl pH 7.9
Experimental: FIG. 5—In vitro Transcription Assay “trans-Im/Py/Py-[CONH(CH2)2—NH2)Pt(NH3)2Cl” (“DJ1953-2”) The Inhibition of RNA synthesis by DJ1953-2 was assessed using a recombinant pSP64 derivative. Incubations were carried out in 40 mM Tris-HCl (pH 7.9), 6 mM MgCl2, 2 mM spermidine, 10 mM NaCl. Lane (1) 100-500 bases RNA marker; (2) to (8) increasing molar concentration of DJ1953-2. […] Experiments were conducted after 12 hour platination reactions (in the dark at 4° C.).
The Inhibition of RNA synthesis by DJ1953-2 was assessed using a recombinant pSP64 derivative. Incubations were carried out in 40 mM Tris-HCl (pH 7.9), 6 mM MgCl2, 2 mM spermidine, 10 mM NaCl. Lane (1) 100-500 bases RNA marker; Lanes (2) to (8) increasing molar concentration of DJ1953-2. […] Experiments were conducted after 12 hour platination reactions (in the dark at 4° C.).

[6] = system: relaxed and negatively supercoiled pUC19 DNA; test: DNA unwinding experiment by gel electrophoresis; format: binding; details: pUC19 plasmid incubated 1.5 hr at 37° C., rb 0-0.074
Experimental: Lanes: 0 Control rb=0; 1, rb=0.008; 2, rb=0.0.016; 3, rb=0.025; 4, rb=0.033; 5, rb=0.041; 6, rb=0.049; 7, rb=0.057; 8, rb=0.066; 9, rb=0.074.
The unwinding angle was determined to be 13° for this experiment, which is the same as that reported for cisplatin (13°). The plasmid was incubated with Im/Py/Py-Pt for 1.5 hr at 37° C. Lanes: 0 Control rb=0; 1, rb=0.008; 2, rb=0.0.016; 3, rb=0.025; 4, rb=0.033; 5, rb=0.041; 6, rb=0.049; 7, rb=0.057; 8, rb=0.066; 9, rb=0.074. The top bands correspond to the form of nicked plasmid and the bottom bands to the closed, negatively supercoiled plasmid shown in FIG. 4.

Row | Compound | apparent first-order affinity constant K for binding site d(CATTGAGAGAC)2 [1] | apparent first-order affinity constant K for binding site d(CATTGTCAGAC)2 [2] | apparent first-order affinity constant K for binding site d(CATTGACAGAC)2 [3] | unwinding angle (reported) [4] | inhibition of RNA synthesis (full-length transcript, 335 bases) [5] | unwinding angle [6]
1 | Cn1cc(NC(=O)c2cc(NC(=O)c3nccn3C)cn2C)cc1C(=O)NCCCCCC[NH][Pt]([NH2])([NH2])[Cl] [DJ-1953-6, trans-Im/Py/Py-[CONH(CH2)6—NH2)Pt(NH3)2Cl] | 1.3 × 10^6 (0.1) M^−1 | 2.4 × 10^6 (0.1) M^−1 | 4.4 × 10^5 (0.2) M^−1 | – | – | –
2 | N.N.[Cl][Pt][Cl] [cisplatin, cis-diamminedichloroplatinum(II)] | – | – | – | 13 ° | – | –
3 | tans-Im/Py/Py-[CONH(CH2)2—NH2)Pt(NH3)2Cl [DJ-1953-2] | 3.0 × 10^5 (0.1) M^−1 | 1.2 × 10^6 (0.1) M^−1 | 5.6 × 10^5 (0.2) M^−1 | – | inhibition of the full-length transcript (FLT) can be seen | –
4 | trans-Im/Py/Py-Pt(Cl)(NH3)2 | – | – | – | – | – | 13 °
